Where two headings read alike, the source gives them in different places.
Key:
MOR (μ opioid receptor) = target: T1, MOR (μ opioid receptor) (Homo sapiens, UniProt P35372); assay: MOR radioligand binding ([3H]-DAMGO, HEK293 cell homogenates); conditions: Percent inhibition at 10,000 nM; [3H]-DAMGO
T1 construct: expressed in transfected cells; host or cells: HEK293
Experimental: (§1) Radioligand binding assays. Detailed protocols for the primary and secondary radioligand binding assays can be found in the National Institute of Mental Health's Psychoactive Drug Screening Program (NIMH PDSP) Assay Protocol Book (Roth, 2018). Briefly, primary and secondary radioligand binding assays are carried out in a final of volume of 125 μL per well in appropriate binding buffer. […] Total binding and nonspecific binding are determined in the absence and presence of 10 μM of appropriate reference compound (Naltrindole DOR, Salvinorin A KOR and DAMGO MOR). In brief, plates are usually incubated at room temperature and in the dark for 90 min. Reactions are stopped by vacuum filtration onto 0.3% polyethyleneimine (PEI) soaked 96-well filter mats using a 96-well Filtermate harvester, followed by three washes with cold PBS buffer. Scintillation cocktail is then melted onto the microwave-dried filters on a hot plate and radioactivity counted in a Microbeta counter. The data (n=6) were analyzed by nonlinear regression.
(§2) Ligand affinities were determined for KOR (κ opioid receptor), DOR (δ opioid receptor), and MOR (μ opioid receptor) using radioligand binding assays at a screening concentration of 10,000 nM. For these assays, cell homogenates from HEK293 cells that overexpressed KOR, MOR, and DOR were used in combination with [^3H]-U69593, [^3H]-DAMGO, and [^3H]-DADLE, respectively Compounds that exceeded more than 50% radioligand displacement were investigated further in concentration-dependent experiments to determine Ki values. Gamma aminobutyric acid type A receptor (GABAAR) binding was determined with rat brain homogenate and ^3H-flunitrazepam. Flunitrazepam binds GABAAR subtypes that consists of two α and two β subunits and one γ or δ subunit. Strong affinities to α1-3,5,6β1-3γ1-y/δ GABAARS have been reported for flunitrazepam. The […] GABAAR subtype expression in the brain includes 43% α1β2γ2, 15% α2β3γ2+8% α2βγ1, 10% α3β3γ2, 6% α4βγ/δ, 4% α5β3γ2, and 4% α6β2γ2/δ. Therefore, compounds with high affinity toward the synaptic benzodiazepine-sensitive receptors (BZR) predominately bind α1-3β2-3γ1-2 GABAARs. Alternatively, compounds with weak BZR binding might be selective for α4-6βγ/δ GABAARs.
(§3) Psychoactive Drug Screening Program. Detailed protocols for the primary and secondary radioligand binding assays can be found in the National Institute of Mental Health's Psychoactive Drug Screening Program (NIMH PDSP) Assay Protocol Book. Briefly, primary and secondary radioligand binding assays are carried out in a final of volume of 125 μL per well in appropriate binding buffer. The radioactive ligand concentration is close to the Kd. Total binding and nonspecific binding are determined in the absence and presence of 10 μM of appropriate reference compound, respectively. In brief, plates are usually incubated at room temperature and in the dark for 90 min. Reactions are stopped by vacuum filtration onto 0.3% polyethyleneimine (PEI) soaked 96-well filter mats using a 96-well Filtermate harvester, followed by three washes with cold PBS buffer. Scintillation cocktail is then melted onto the microwave-dried filters on a hot plate and radioactivity counted in a Microbeta counter. The data (n=6) were analyzed by nonlinear regression.

Mouse microglia [1] = assay: Cell viability (CellTiter-Glo), mouse microglia; format: cell-based; conditions: 50 μM, CellTiter-Glo
Experimental: (§4) Next, a library of GABAAR ligands was investigated to identify compounds that reduce the production of NO as a marker of anti-inflammatory activity. […] NO was quantified with a Greiss assay. Cell viability was determined with CellTiter-Glo.
(§5) Nitric oxide production (Griess assay) and viability assay (CellTiter-Glo). 80 μL of mouse microglia culture (1×10^6 cells/mL) was plated into sterile 384 well plates representing non-activated wells. The remaining culture was activated with 50 ng/ml LPS (Invivogen, NC9836) and 150 U/mL IFNγ (R&D Systems, 485MI100) and distributed into the 384 well plates. […] Assay plates were incubated for approximately 24 hours (unless otherwise noted) at 37° C., centrifuged, and 40 μL of supernatant transferred to a new plate for analysis using the Griess Assay (Promega, Madison, WI). Absorbance at 530 nm was measured using a TECAN Infinite M1000 plate reader. The remaining 40 μL containing cells was analyzed for toxicity by the CellTiter-Glo Assay (Promega, Madison, WI). Luminescence was read using a TECAN Infinite M1000 plate reader.

Mouse microglia [2] = assay: NO production (Griess assay), LPS/IFNγ-activated mouse microglia; format: cell-based
Experimental: as §4
Cell culture. A) HMC3 Microglia (CRL-3304) were maintained in treated cell culture flasks (Nunc, 156472) with EMEM (Corning, 10010CV) supplemented with 10% heat-inactivated FBS (Corning, 35011CV) and 100 U/mL penicillin and 100 μg/mL streptomycin (Hyclone, SV30010). Cultures were maintained at 37° C. and 5% CO2. When cells reached a density of 7×10^4 cells/mL, cultures were passaged with 0.25% Trypsin (Corning, 25-053-CI) and resuspended to a density no lower than 10,000 cells/mL. B) Human and mouse microglia cell lines were a gift from Dr. David Alvarez-Carbonell at Case Western Reserve University (Cleveland, OH). Microglia were cultured in cell culture treated flasks (Nunc, 156472) with DME/F12 media (Hyclone, SH30023.01) supplemented with 10% heat-inactivated FBS (Corning, 35011CV), 100 U/mL penicillin/100 μg/mL streptomycin (Hyclone, SV30010), and Normocin (Invivogen, ant-nr). Cultures were maintained at 37° C. and 5% CO2. […] Cultures were maintained at 37° C. and 5% CO2. Cells were passaged when they reached a density of approximately 3×10^6 cells/mL using cell scrapers (VWR, 10062-906) to lift cells from flask surface and resuspended at densities of approximately 500,000 cells/mL.
as §5

DOR (δ opioid receptor) = target: T2, DOR (δ opioid receptor) (Homo sapiens, UniProt P41143); assay: DOR radioligand binding ([3H]-DADLE, HEK293 cell homogenates); conditions: Percent inhibition at 10,000 nM; [3H]-DADLE
T2 construct: expressed in transfected cells; host or cells: HEK293
Experimental: as §1, §2, §3

[3] = system: BZR (benzodiazepine site of GABAAR); assay: GABAAR/BZR binding, rat brain homogenate with 3H-flunitrazepam; conditions: rat brain homogenate, 3H-flunitrazepam; for BZR %: Percent inhibition at 10,000 nM
Experimental: as §2, §3

KOR (κ opioid receptor) = target: T3, KOR (κ opioid receptor) (Homo sapiens, UniProt P41145); assay: KOR radioligand binding ([3H]-U69593, HEK293 cell homogenates); conditions: for inhibition at 10 µM: Percent inhibition at 10,000 nM
T3 construct: expressed in transfected cells; host or cells: HEK293 (stably transfected)
Experimental: as §1, §2, §3

HEPG2 = assay: Viability assay (CellTiter-Glo), HEPG2; format: cell-based, human; conditions: 120 μM, CellTiter-Glo
Experimental: (§6) The screen identified several compounds that reduced NO in activated microglia and macrophages. The tested compounds included achiral and chiral imidazodiazepines and benzodiazepines. In general, microglia were more sensitive to compound treatment with more pronounced reduction of NO than macrophages. […] Cell viability assays with HEK293 (kidney) and HepG2 (liver) cells were conducted in a concentration dependent manner. A limited number of compounds, such as GL-III-63, GL-III-76A, and GL-III-77, were toxic at 120 μM.
(§7) Viability assay. Human liver hepatocellular carcinoma (HEPG2) and human embryonic kidney 293T (HEK293T) cell lines were purchased (ATCC) and cultured in 75 cm^2 flasks (CellStar). Cells were grown in DMEM/High Glucose (Hyclone, #SH3024301) media to which non-essential amino acids (Hyclone, #SH30238.01), 10 mM HEPES (Hyclone, #SH302237.01), 5×10^6 units of penicillin and streptomycin (Hyclone, #SV30010), and 10% of heat inactivated fetal bovine serum (Gibco, #10082147) were added. Cells were harvested using 0.05% Trypsin (Hyclone, #SH3023601), washed with PBS, and dispensed into sterile white, optical bottom 384-well plates (NUNC, #142762). After three hours, small molecule DMSO solutions were transferred with a Tecan Freedom EVO liquid handling system equipped with a 100 nL pin tool (V&P Scientific). The controls were 3-dibutylamino-1-(4-hexyl-phenyl)-propan-1-one (25 mM in DMSO, positive control) and DMSO (negative control). The cells were incubated for 48 hours followed by the addition of CellTiter-Glo™, a luminescence-based cell viability assay (Promega, Madison, WI). All luminescence readings were performed on a Tecan Infinite M1000 plate reader. The assay was carried out in quadruplet with two independent runs. The data were analyzed by nonlinear regression.

HEK293 = assay: Viability assay (CellTiter-Glo), HEK293; format: cell-based, human; conditions: 120 μM, CellTiter-Glo
Experimental: as §6, §7

[4] = concentration-dependent, [3H]-U69593, read-out: KOR (Ki)

T2 sequence (P41143 whole entry): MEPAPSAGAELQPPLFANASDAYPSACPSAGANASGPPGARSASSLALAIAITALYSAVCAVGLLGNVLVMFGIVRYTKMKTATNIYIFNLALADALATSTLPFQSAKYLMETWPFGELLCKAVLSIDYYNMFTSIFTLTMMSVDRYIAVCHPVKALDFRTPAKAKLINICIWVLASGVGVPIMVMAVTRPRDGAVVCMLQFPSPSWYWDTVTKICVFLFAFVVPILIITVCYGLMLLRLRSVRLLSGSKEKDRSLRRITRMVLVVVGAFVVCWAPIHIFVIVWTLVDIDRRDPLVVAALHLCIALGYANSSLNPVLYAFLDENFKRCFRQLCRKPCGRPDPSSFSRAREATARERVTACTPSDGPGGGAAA
T3 sequence (P41145 whole entry): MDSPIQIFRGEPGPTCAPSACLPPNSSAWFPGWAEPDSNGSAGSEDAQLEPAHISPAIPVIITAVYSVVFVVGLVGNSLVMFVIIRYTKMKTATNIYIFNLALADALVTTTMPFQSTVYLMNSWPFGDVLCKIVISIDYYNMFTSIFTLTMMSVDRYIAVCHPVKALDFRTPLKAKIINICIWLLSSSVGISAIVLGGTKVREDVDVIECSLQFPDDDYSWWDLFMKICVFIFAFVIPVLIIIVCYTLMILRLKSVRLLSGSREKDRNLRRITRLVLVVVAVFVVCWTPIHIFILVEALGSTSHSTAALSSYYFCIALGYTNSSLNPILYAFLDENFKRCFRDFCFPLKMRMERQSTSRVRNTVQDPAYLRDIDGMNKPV
T1 sequence (P35372 whole entry, species assumed): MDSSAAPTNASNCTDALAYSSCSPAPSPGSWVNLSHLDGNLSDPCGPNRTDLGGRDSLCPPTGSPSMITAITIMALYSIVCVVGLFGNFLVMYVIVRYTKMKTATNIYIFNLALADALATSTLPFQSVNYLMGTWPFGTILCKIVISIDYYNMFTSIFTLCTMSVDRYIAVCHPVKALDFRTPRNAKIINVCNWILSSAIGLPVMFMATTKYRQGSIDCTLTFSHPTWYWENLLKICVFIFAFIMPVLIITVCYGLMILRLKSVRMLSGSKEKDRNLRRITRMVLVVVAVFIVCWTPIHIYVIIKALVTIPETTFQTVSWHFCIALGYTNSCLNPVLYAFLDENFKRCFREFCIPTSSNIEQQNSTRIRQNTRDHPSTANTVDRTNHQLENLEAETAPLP

SMILES	inhibition at 10 µM (MOR (μ opioid receptor)) [%]	Cell viability (%) Mouse microglia 50 μM (Mouse microglia [1]) [%]	inhibition at 50 µM (Mouse microglia [2]; Mus musculus, Microglia, 24 h) [%]	inhibition at 10 µM (DOR (δ opioid receptor)) [%]	BZR % [3] [%]	Ki [3] [nM]	Ki (KOR (κ opioid receptor)) [nM]	inhibition at 10 µM (KOR (κ opioid receptor); [3H]-U69593) [%]	inhibition at 10 µM (Mouse microglia [2]; Mus musculus, Microglia, 24 h) [%]	Inhibition of NO production (%) Mouse microglia 50 μM (Mouse microglia [2]; 50 μM, 24 hours, 1 μM GABA, LPS/IFNγ) [%]	Cell viability (%) HEPG2 120 μM (HEPG2) [%]	Cell viability (%) HEK293 120 μM (HEK293) [%]	Ki (KOR (κ opioid receptor); [4]) [nM]
C#Cc1ccc2c(c1)C(c1ccccc1F)=N[C@@H](C)c1c(-c3nc(C)no3)ncn1-2 [GL-I-65, (S)-5-(8-Ethynyl-6-(2-fluorophenyl)-4-methyl-4H-benzo[f]imidazo[1,5-a][1,4]diazepin-3-yl)-3-methyl-1,2,4-oxadiazole]	2	100 ± 12	19 ± 9	7	79	1150	222	88					
C#Cc1ccc2c(c1)C(c1ccccc1F)=N[C@@H](C)c1c(-c3nc(CC)no3)ncn1-2 [GL-I-66, (S)-3-Ethyl-5-(8-ethynyl-6-(2-fluorophenyl)-4-methyl-4H-benzo[f]imidazo[1,5-a][1,4]diazepin-3-yl)-1,2,4-oxadiazole]	28	71 ± 9	86 ± 11	2	80	654	212	92	5 ± 2				
C#Cc1ccc2c(c1)C(c1ccccc1F)=NCc1c(-c3nc(C)no3)ncn1-2 [GL-III-23]		100 ± 2								28 ± 5	90 ± 13	65 ± 5	
Cc1noc(-c2ncn3c2[C@@H](C)N=C(c2ccccn2)c2cc(C4CC4)ccc2-3)n1 [GL-III-64]	7	96 ± 10	26 ± 10	14	92	1490	2050	60			75 ± 10	75 ± 8	
C#Cc1ccc2c(c1)C(c1ccccc1F)=NCc1c(-c3cnco3)ncn1-2 [KRM-II-18B]	11	100 ± 3	0	20	97	38		89					361
C#Cc1ccc2c(c1)C(c1ccccc1)=NCc1c(-c3cnco3)ncn1-2 [KRM-II-82]	5	100 ± 6	0	20	95	96		78					1200
